Experimental data published in ChEMBL document CHEMBL5032522, “N-2-(phenylamino) benzamide derivatives as novel anti-glioblastoma agents: Synthesis and biological evaluation” (Eur J Med Chem, 2021).
Active and inactive are the calls of the source. The calls are words filed in the database; no cut-off is given here.

What was measured:
Rattus norvegicus [1] = assay: In vivo inhibition of STAT3 activation in ip dosed orthotopic Sprague-Dawley rat model inoculated with C6 cells assessed as decrease in p-STAT3 in tumor tissue by Western blot analysis; type: functional, organism-based
Rattus norvegicus [2] = organism: Rattus norvegicus; assay: Downregulation of MMP-9 protein expression in Sprague-Dawley rat orthotopic model inoculated with C6 cells by Western blot analysis; type: functional
[3] = Toxicity in BALB/c mouse xenografted with human U-87 MG cells assessed as reduction in body weight at 20 mg/kg, ip bid measured after 25 days; type: organism-based; details: in vivo, 600 h, time 25 day
U-87 MG = assay: Antitumor activity against human U-87 MG cells xenografted in BALB/c nude mouse assessed as reduction in tumor weight at 20 mg/kg, ip bid measured every 3 days for 25 days; type: functional, organism-based; details: U-87MG ATCC, time 25.0 day
[4] = Acute toxicity in Kunming mouse assessed as death at 300 mg/kg, ip administered as single dose observed every day for 14 days; type: organism-based; details: in vivo, 336 h, time 14 day

SMILES: COc1ccc(NC(=O)c2ccccc2Nc2cccc(Cl)c2C)cc1
- inhibition (Rattus norvegicus [1]): Active
- Activity (Rattus norvegicus [2]): Active
- Activity [3]: Non-Toxic
- Activity (U-87 MG): Active
- Activity [4]: Non-Toxic
